Results: patent US20250109127A1, “METHODS OF USE OF PHENOXYPROPYLAMINE COMPOUNDS TO TREAT DEPRESSION” (Minerva Neurosciences, Inc., priority 2013, published 2025)
“And” between values parts separate entries of the source, which are not always exact repeats. Equal values may be shown once. Where a name gives a salt, the structure may show the parent alone.

Test system: 5-HIAA release in the rat prefrontal cortex
Assay: Microdialysis: 5-HIAA release in prefrontal cortex after I.P. administration
Format: in vivo
Details: for 5-HIAA release, MEAN / 5-HIAA release, individual animals: 0.3 mg/kg I.P.; for 5-HIAA release, MEAN: n = 8; for 5-HIAA release, individual animals: one column per animal R#11,12,18,23,29,30,17,24, hydrochloride; for levels of 5-HIAA compared to the citalopram treated group (significant): SON-117 0.1 mg/kg
Procedure: The aim of the study was to evaluate, using microdialysis, the effects of an intraperitoneal (I.P.) administration in rats of three different doses of SON-117 on dopamine and its metabolites, serotonin and its metabolite (5-HIAA), and norepinephrine levels in prefrontal cortex.
Thirty-two adult male Wistar rats were used for the whole study (4 groups of eight animals planned for the study, Table 1).
Surgery was performed on rats weighing about 300 g at the beginning of the experiments. Rats were anaesthetized with Ketamine (50 mg/kg) & Xylazine (15 mg/kg) by intramuscular administration. The animals were placed in a stereotaxic apparatus in the flat-skull position at a constant setting of −3.3 mm between ear bars and the incisor bar. The animals were treated with a local anesthesic (xylocaine 1%, Astra Zeneca) and an analgesic (Temgesic, from Schering Plough, 0.05 mg/kg, s.c.). A rostrocaudal midline incision was made with a lancet to expose the dorsal skull surface. The “stereotaxic zero” was defined by the Bregma in accordance with Paxinos and Watson's atlas (1986). A hole was drilled in the skull with a drill and the meninges were pierced with a sterile needle to implant a CMA12 guide cannula which later received the dialysis probe.
Coordinates used for implanting guide cannula in prefrontal cortex from Bregma were anteroposterior 3.7 mm, mediolateral 0.8 mm, and dorsoventral −2 mm (top of the probe was at −5 mm). The guide cannula was fixed to the skull with two stainless steel screws (1.88 mm outside diameter) anchored. An application of dental cement was added. A plastic collar allowed each animal to be tethered to a Swivel assembly of the CMA 120 awake animal system. Following surgery, rats were kept in individual cages and allowed to recover for a minimum of 3-5 days before the experimentation. The rats were handled and put in plastic bowl for 10 min at least every day to habituate the animals to their new environment for the dialysis. An I.P. administration with saline was also performed every day.
Dialysis probes (CMA12/3 mm, membrane, 20 kD cut-off, Carnegie Medicine, Stockholm, Sweden), were carefully washed before inserting into the guide cannula. The wash was performed with the artificial cerebrospinal fluid (aCSF) medium (NaCl 147 mM, KCl 2.7 mM, CaCl2 1.2 mM, MgCl2 0.85 mM) at room temperature. The dialysis system was then equilibrated at 20° C. at a perfusion rate of 1 μl/min with a Carnegie pump (CMA100). All catheters (FEP tubing, internal volume of 1.2 μl/10 cm, and tubing adaptors) used for microdialysis were treated in the same conditions.
The probes duly prepared were inserted into the guide cannula and the CMA120 Swivel assembly secured to the animal using a plastic collar. Flow through the dialysis probe with aCSF was maintained at a rate of 1 μl/min during the whole experimentation. The first four fractions (corresponding to 2 hours) were discarded to avoid the effects of parenchymal disturbance and to ensure that an approximate steady-state level was reached. Fractions were then collected over a period of 8.5 h during which time the animals remained quiet. The dialysates were automatically collected with an autosampler (microfraction collector CMA 140, Carnegie Medicin) and stored at −80° C. until analysis. […] Perfusion was then maintained for 7 hours with aCSF. The dialysates (30 μl) were collected into 300 μl vials, transferred into dry ice and then kept frozen (−80° C.) until analysis. Frozen samples were shipped to a partner for analysis. At the end of the microdialysis study, a PBS with colored ink was perfused through the probe in order to visualize the dialyzed area.
Catecholamine assay: Concentrations of dopamine, DOPAC, HVA, 5-HIAA, 5-HT, and norepinephrin were determined for each sample by HPLC coupled with electrochemical detection.

SMILES: Cc1nnc(-c2cc3c(OC[C@@H](O)CN4CCC(c5ccc(Cl)c(Cl)c5)CC4)cccc3o2)o1 [SON-117, (S)-1-(4-(3,4-dichlorophenyl)piperidino)-3-(2-(5-methyl-1,3,4-oxadiazol-2-yl)benzo(b)furan-4-yloxy)-2-propanol hydrochloride]
- 5-HIAA release, MEAN (T3 h 30-T4 h): 86.84 % of respective basal
- 5-HIAA release, individual animals (T3 h 30-T4 h): 84.27 % of respective basal and 78.82 % of respective basal and 113.26 % of respective basal and 50.70 % of respective basal and 79.10 % of respective basal and 97.98 % of respective basal and 103.77 % of respective basal
- 5-HIAA release, MEAN (T3 h-T3 h 30): 85.23 % of respective basal
- 5-HIAA release, individual animals (T3 h-T3 h 30): 91.97 % of respective basal and 87.81 % of respective basal and 101.16 % of respective basal and 49.70 % of respective basal and 76.51 % of respective basal and 101.56 % of respective basal and 87.92 % of respective basal
- 5-HIAA release, MEAN (T4 h 30-T5 h): 79.56 % of respective basal
- 5-HIAA release, individual animals (T4 h 30-T5 h): 106.09 % of respective basal and 92.34 % of respective basal and 55.38 % of respective basal and 93.00 % of respective basal and 34.98 % of respective basal and 60.78 % of respective basal and 97.49 % of respective basal and 96.40 % of respective basal
- 5-HIAA release, MEAN (T4 h-T4 h 30): 83.02 % of respective basal
- 5-HIAA release, individual animals (T4 h-T4 h 30): 101.39 % of respective basal and 87.58 % of respective basal and 68.33 % of respective basal and 105.89 % of respective basal and 46.22 % of respective basal and 58.28 % of respective basal and 100.16 % of respective basal and 96.30 % of respective basal
- 5-HIAA release, MEAN (T5 h 30-T6 h): 76.13 % of respective basal
- 5-HIAA release, individual animals (T5 h 30-T6 h): 99.18 % of respective basal and 83.12 % of respective basal and 47.00 % of respective basal and 91.59 % of respective basal and 31.98 % of respective basal and 58.90 % of respective basal and 95.96 % of respective basal and 101.31 % of respective basal
- 5-HIAA release, MEAN (T5 h-T5 h 30): 70.00 % of respective basal
- 5-HIAA release, individual animals (T5 h-T5 h 30): 36.17 % of respective basal and 102.81 % of respective basal and 51.02 % of respective basal and 88.56 % of respective basal and 33.58 % of respective basal and 69.56 % of respective basal and 91.58 % of respective basal and 86.71 % of respective basal
- 5-HIAA release, MEAN (T6 h 30-T7 h): 77.53 % of respective basal
- 5-HIAA release, individual animals (T6 h 30-T7 h): 93.10 % of respective basal and 92.17 % of respective basal and 48.56 % of respective basal and 102.17 % of respective basal and 26.99 % of respective basal and 69.28 % of respective basal
- 5-HIAA release, MEAN (T6 h-T6 h 30): 75.56 % of respective basal
- 5-HIAA release, individual animals (T6 h-T6 h 30): 95.37 % of respective basal and 79.54 % of respective basal and 45.32 % of respective basal and 101.94 % of respective basal and 31.32 % of respective basal and 69.73 % of respective basal and 87.93 % of respective basal and 93.33 % of respective basal
- 5-HIAA release, MEAN (T-30 min-T0 (before administration)): 101.34 % of respective basal
- 5-HIAA release, MEAN (T-1 h 30-T-1 h (before administration)): 96.20 % of respective basal
- 5-HIAA release, MEAN (T-1 h-T-30 min (before administration)): 102.47 % of respective basal
- 5-HIAA dialysate levels vs mean pre-administration value (SON-117 0.1 mg/kg I.P.): no statistically significant differences
- levels of 5-HIAA compared to the citalopram treated group (significant) (at 0.5 h): lower
- levels of 5-HIAA compared to the citalopram treated group (significant) (at 4.5 h, 5 h, 6.5 h): higher
- 5-HIAA concentrations in prefrontal cortex, change (SON-117 0.3 mg/kg IP, at 3.5 h and from 4.5 h to 7 h): significant and stable slight decrease
- 5-HIAA, difference to the citalopram group (SON-117 0.3 mg/kg, in function of time): no significant difference
